Results as given in patent US20070048250A1, “Methods of treating concomitant constipation in a cancer treatment regimen including imexon” (AmpliMed Corporation, priority 2005, published 2007).

Columns and labels:
patients = assay: clinical study of imexon to treat cancer: adverse events (daily dose 5 consecutive days per week, every other week, four-week cycle); format: in vivo, human
Description: As described hereinbefore, it has been found, unexpectedly, that the administration of a pharmaceutical composition comprising imexon induces constipation in a large percentage of patients. Of forty nine (49) patients taking part in a clinical study investigating the use of imexon to treat cancer, thirty one (31) patients (63.3%) were reported to have had the gastrointestinal toxicity of constipation in association with their treatment with imexon. […] All other observed gastrointestinal adverse events individually accounted for less than 5% of total gastrointestinal adverse events.
Of the forty nine (49) patients treated in the clinical study, thirty nine (39) received imexon at a dose equal to or greater than 140 mg/m^2, thirty three (33) received imexon at a dose equal to or greater than 185 mg/m^2, and thirty (30) received imexon at a dose equal to or greater than 245 mg/m^2.
Of these seventy three (73) constipation adverse events, fifty two (52) of the adverse events (71.2%) were characterized as “possibly,” “probably,” or “definitely related to the treatment” of the patient with imexon.

transplanted tumors = details: in vivo; cited from earlier work
rats = details: numerous studies; cited from earlier work
[1] = 750 mg/m^2, relationship Definite
[2] = 750 mg/m^2, relationship Possible
[3] = 750 mg/m^2, relationship Probable
[4] = 875 mg/m^2, relationship Definite
[5] = 875 mg/m^2, relationship Possible
[6] = 875 mg/m^2, relationship Probable
[7] = 1000 mg/m^2, relationship Probable
[8] = all doses 20-1000 mg/m^2 (Total), relationship Definite
[9] = all doses 20-1000 mg/m^2 (Total), relationship Not Related
[10] = all doses 20-1000 mg/m^2 (Total), relationship Possible
[11] = all doses 20-1000 mg/m^2 (Total), relationship Probable
[12] = all doses 20-1000 mg/m^2 (Total), relationship Unlikely
[13] = all doses 20-1000 mg/m^2, 49 patients, all relationships (Total)
[14] = dose equal to or greater than 185 mg/m^2
[15] = dose equal to or greater than 245 mg/m^2

N=C1NC(=O)N2CC12 (stereo not shown) [imexon, 4-imino-1,3-diazabicyclo[3.1.0]-hexan-2-one]
Constipation Adverse Events, Total (patients; 570 mg/m^2, relationship Probable): 1 | Constipation Adverse Events, Total (patients; 570 mg/m^2, relationship Unlikely): 0 | Constipation Adverse Events, Grade 1 (patients; [1]): 1 | Constipation Adverse Events, Grade 2 (patients; [1]): 4 | Constipation Adverse Events, Grade 3 (patients; [1]): 3 | Constipation Adverse Events, Total (patients; [1]): 8 | Constipation Adverse Events, Total (patients; 750 mg/m^2, relationship Not Related): 0 | Constipation Adverse Events, Grade 1 (patients; [2]): 2 | Constipation Adverse Events, Total (patients; [2]): 2 | Constipation Adverse Events, Grade 2 (patients; [3]): 2 | Constipation Adverse Events, Total (patients; [3]): 2 | Constipation Adverse Events, Total (patients; 750 mg/m^2, relationship Unlikely): 0 | Constipation Adverse Events, Grade 1 (patients; [4]): 2 | Constipation Adverse Events, Grade 2 (patients; [4]): 1 | Constipation Adverse Events, Grade 3 (patients; [4]): 1 | Constipation Adverse Events, Total (patients; [4]): 4 | Constipation Adverse Events, Total (patients; 875 mg/m^2, relationship Not Related): 0 | Constipation Adverse Events, Grade 2 (patients; [5]): 1 | Constipation Adverse Events, Total (patients; [5]): 1 | Constipation Adverse Events, Grade 1 (patients; [6]): 1 | Constipation Adverse Events, Total (patients; [6]): 1 | Constipation Adverse Events, Total (patients; 875 mg/m^2, relationship Unlikely): 0 | Constipation Adverse Events, Total (patients; 1000 mg/m^2, relationship Definite): 0 | Constipation Adverse Events, Total (patients; 1000 mg/m^2, relationship Not Related): 0 | Constipation Adverse Events, Total (patients; 1000 mg/m^2, relationship Possible): 0 | Constipation Adverse Events, Grade 2 (patients; [7]): 1 | Constipation Adverse Events, Total (patients; [7]): 1 | Constipation Adverse Events, Total (patients; 1000 mg/m^2, relationship Unlikely): 0 | all other observed gastrointestinal adverse events, individually, as share of total gastrointestinal adverse events (patients; 49 patients): less than 5% | anorexia as share of total gastrointestinal adverse events (patients; 49 patients): 13.4% | constipation adverse events as share of all gastrointestinal adverse events (patients; 49 patients): 21.8% | diarrhea as share of total gastrointestinal adverse events (patients; 49 patients): 10.5% | nausea as share of all gastrointestinal adverse events (patients; 49 patients): 23.0% | vomiting as share of total gastrointestinal adverse events (patients; 49 patients): 11.9% | Constipation Adverse Events, Grade 1 (patients; [8]): 4 | Constipation Adverse Events, Grade 2 (patients; [8]): 9 | Constipation Adverse Events, Grade 3 (patients; [8]): 6 | Constipation Adverse Events, Grade 4 (patients; [8]): 0 | Constipation Adverse Events, Grade 5 (patients; [8]): 0 | Constipation Adverse Events, Total (patients; [8]): (Total) 19 | Constipation Adverse Events, Grade 1 (patients; [9]): 1 | Constipation Adverse Events, Grade 2 (patients; [9]): 10 | Constipation Adverse Events, Grade 3 (patients; [9]): 6 | Constipation Adverse Events, Grade 4 (patients; [9]): 0 | Constipation Adverse Events, Grade 5 (patients; [9]): 0 | Constipation Adverse Events, Total (patients; [9]): (Total) 17 | Constipation Adverse Events, Grade 1 (patients; [10]): 3 | Constipation Adverse Events, Grade 2 (patients; [10]): 8 | Constipation Adverse Events, Grade 3 (patients; [10]): 1 | Constipation Adverse Events, Grade 4 (patients; [10]): 0 | Constipation Adverse Events, Grade 5 (patients; [10]): 0 | Constipation Adverse Events, Total (patients; [10]): (Total) 12 | Constipation Adverse Events, Grade 1 (patients; [11]): 5 | Constipation Adverse Events, Grade 2 (patients; [11]): 14 | Constipation Adverse Events, Grade 3 (patients; [11]): 2 | Constipation Adverse Events, Grade 4 (patients; [11]): 0 | Constipation Adverse Events, Grade 5 (patients; [11]): 0 | Constipation Adverse Events, Total (patients; [11]): (Total) 21 | Constipation Adverse Events, Grade 1 (patients; [12]): 1 | Constipation Adverse Events, Grade 2 (patients; [12]): 2 | Constipation Adverse Events, Grade 3 (patients; [12]): 1 | Constipation Adverse Events, Grade 4 (patients; [12]): 0 | Constipation Adverse Events, Grade 5 (patients; [12]): 0 | Constipation Adverse Events, Total (patients; [12]): (Total) 4 | Constipation Adverse Events, Grade 1 (patients; [13]): (Total) 14 | Constipation Adverse Events, Grade 2 (patients; [13]): (Total) 43 | Constipation Adverse Events, Grade 3 (patients; [13]): (Total) 16 | Constipation Adverse Events, Grade 4 (patients; [13]): (Total) 0 | Constipation Adverse Events, Grade 5 (patients; [13]): (Total) 0 | Constipation Adverse Events, Total (patients; [13]): 73 | Constipation Adverse Events, Total (patients; all doses 20-1000 mg/m^2, 49 patients, all relationships (Total), listed as Imexon): (Total) 73 | constipation adverse events characterized as possibly, probably, or definitely related to the treatment (patients; [14]): 94.4% | constipation adverse events characterized as probably, or definitely related to the treatment (patients; [14]): 72.2% | constipation adverse events in total (patients; [14]): 54 | constipation adverse events characterized as possibly, probably, or definitely related to the treatment (patients; [15]): 96.1% | constipation adverse events characterized as probably, or definitely related to the treatment (patients; [15]): 74.5% | constipation adverse events in total (patients; [15]): 51 | activity against a variety of transplanted tumors in rodents (transplanted tumors): active | gastrointestinal lesions on pathologic examination (rats): not shown evidence of gastrointestinal lesions
